# Bridge positions count the residues as written; N and C are the ends. Ends that are not written are not given here. Peptide text beside a SMILES is read from it.
# Legend:
# [1] = target: T1, QC (Homo sapiens, UniProt Q16769); assay: Inhibition and inactivation of human QC by chelators; assay type: biochemical; parameters: The cDNA of the mature QC starting with codon 38 was fused in frame with the plasmid encoded 6×histidine tag; 6xHis; made in house; host or cells: Pichia pastoris X33 (pPICZαB); also E. coli M15 (pQE-31); details: for inhibition of human QC catalyzed substrate cyclization: competitive and time-dependent for the chelators
# T1 sequence (Q16769 29-361): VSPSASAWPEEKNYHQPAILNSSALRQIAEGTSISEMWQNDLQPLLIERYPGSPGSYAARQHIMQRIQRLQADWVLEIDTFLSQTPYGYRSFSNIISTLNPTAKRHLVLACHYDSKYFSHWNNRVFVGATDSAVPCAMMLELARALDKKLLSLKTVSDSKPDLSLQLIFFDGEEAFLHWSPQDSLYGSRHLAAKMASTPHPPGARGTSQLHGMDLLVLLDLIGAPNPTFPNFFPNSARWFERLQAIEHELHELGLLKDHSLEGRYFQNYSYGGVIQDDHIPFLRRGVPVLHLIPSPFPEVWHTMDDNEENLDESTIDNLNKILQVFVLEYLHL
# [2] = system: mammalian QC; details: Busby et al. 1987; cited from earlier work
# [3] = target: T1, QC; assay: Continuous spectrophotometric assay of QC substrate conversion (glutamate dehydrogenase coupled), human QC;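 note: initial rates read in microplates at 30 °C, with enzyme activity quantified against an ammonia calibration curve recorded under the same assay conditions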
# Protocol: The initial velocities were evaluated and the enzymatic activity was determined from a standard curve of ammonia under assay conditions. All samples were measured at 30° C., using either the [sequence]luor Plus or the Sunrise (both from TECAN) reader for microplates. Kinetic data was evaluated using GraFit software.
# [4] = target: T1, QC; assay: Fluorometric assay with pyroglutamyl aminopeptidase as auxiliary enzyme, human QC; assay type: biochemical; parameters: The cDNA of the mature QC starting with codon 38 was fused in frame with the plasmid encoded 6×histidine tag; 6xHis; made in house; host or cells: Pichia pastoris X33 (pPICZαB); also E. coli M15 (pQE-31); details: H-Gln-AMC as substrate
# Excerpt: Excitation/emission wavelengths were 320/410 nm.
# Excitation/emission wavelengths were 380/460 nm.
# H-Glu(OMe)-βNA and H-Glu-βNA.
# [5] = target: T1, QC; assay: Long-term Glu^1-cyclization of Aβ-derived peptides by recombinant human QC, MALDI-TOF; assay type: biochemical; parameters: The cDNA of the mature QC starting with codon 38 was fused in frame with the plasmid encoded 6×histidine tag; 6xHis; made in house; host or cells: Pichia pastoris X33 (pPICZαB); also E. coli M15 (pQE-31); details: for suppression of [pGlu^3]Aβ3-11a / [pGlu^3]Aβ3-21a formation from Aβ3-11a / Aβ3-21a: 5 mM benzimidazole, pH 5.2 and 6.5; for turnover of glutamate-containing peptide by QC: pH 5.2 and 6.5, respectively
# Protocol: For long-term testing of Glu^1-cyclization, Aβ-derived peptides were incubated in 100 μl 0.1 M sodium acetate buffer, pH 5.2 or 0.1 M Bis-Tris buffer, pH 6.5 at 30° C. Peptides were applied in 0.5 mM [Aβ3-11a] or 0.15 mM [Aβ3-21a] concentrations, and 0.2 U QC was added all 24 hours.
# In case of Aβ3-21a, the assays contained 1% DMSO. At different times, samples were removed from the assay tube, peptides extracted using ZipTips (Millipore) according to the manufacturer's recommendations, mixed with matrix solution (1:1 v/v) and subsequently the mass spectra recorded. Negative controls did either contain no QC or heat deactivated enzyme.
# The QC-catalyzed formation of [pGlu^3]Aβ3-11a and [pGlu^3]Aβ3-21a was investigated at pH 5.2 and 6.5, respectively. If the QC-inhibitor benzimidazole was added to the solution before starting the assay by addition of QC, substrate conversion resulting in [pGlu^3]Aβ3-11a or [pGlu^3]Aβ3-21a was suppressed (FIGS. 15E and F). If QC was boiled before addition, formation of the pGlu-peptides was negligible (FIGS. 15A and B).
# [6] = target: T2, purified DP IV (porcine kidney) (Sus scrofa, UniProt P22411); assay: Cleavage of [Gln^3]Aβ1-11a by DP IV, MALDI-TOF; assay type: biochemical
# T2 construct: purified DP IV (porcine kidney); from tissue; host or cells: porcine kidney
# T2 sequence (P22411 whole entry): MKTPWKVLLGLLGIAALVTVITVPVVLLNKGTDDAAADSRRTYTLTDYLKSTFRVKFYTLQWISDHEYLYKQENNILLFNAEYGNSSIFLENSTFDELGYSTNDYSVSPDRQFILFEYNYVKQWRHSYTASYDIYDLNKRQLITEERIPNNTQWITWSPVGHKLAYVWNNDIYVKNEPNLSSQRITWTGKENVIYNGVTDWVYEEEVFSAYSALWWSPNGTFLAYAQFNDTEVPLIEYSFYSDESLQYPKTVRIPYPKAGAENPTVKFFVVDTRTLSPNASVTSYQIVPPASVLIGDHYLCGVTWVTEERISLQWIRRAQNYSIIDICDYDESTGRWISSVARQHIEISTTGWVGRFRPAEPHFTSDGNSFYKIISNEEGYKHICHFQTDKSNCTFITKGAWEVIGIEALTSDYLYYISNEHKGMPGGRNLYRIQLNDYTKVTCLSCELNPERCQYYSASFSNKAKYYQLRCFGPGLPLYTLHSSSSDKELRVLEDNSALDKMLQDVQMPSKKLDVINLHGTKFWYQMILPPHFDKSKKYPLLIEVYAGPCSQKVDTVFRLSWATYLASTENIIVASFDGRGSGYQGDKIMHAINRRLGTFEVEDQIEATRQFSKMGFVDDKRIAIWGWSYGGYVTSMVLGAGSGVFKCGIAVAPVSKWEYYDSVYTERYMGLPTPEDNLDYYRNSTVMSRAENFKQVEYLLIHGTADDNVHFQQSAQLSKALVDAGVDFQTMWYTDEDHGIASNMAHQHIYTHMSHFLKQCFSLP
# Protocol: Matrix-assisted laser desorption/ionization mass spectrometry was carried out using the Hewlett-Packard G2025 LD-TOF System with a linear time of flight analyzer. […] Samples (5 μl) were mixed with equal volumes of the matrix solution. For matrix solution we used DHAP/DAHC, prepared by solving 30 mg 2′,6′-dihydroxyacetophenone (Aldrich) and 44 mg diammonium hydrogen citrate (Fluka) in 1 ml acetonitrile/0.1% TFA in water (1/1, v/v). A small volume (=1 μl) of the matrix-analyte-mixture was transferred to a probe tip and immediately evaporated in a vacuum chamber (Hewlett-Packard G2024A sample prep accessory) to ensure rapid and homogeneous sample crystallization.
# [7] = Table 6, influence of substrate length
# [8] = Table 1, physiological substrates
# [9] = peptides comprising modified amino acids
compound,measurement,setting,value
Oc1cccc2cccnc12 [8-hydroxyquinoline],inhibition of human QC catalyzed substrate cyclization,[1],abolished
O=C(O)CN(CCN(CC(=O)O)CC(=O)O)CC(=O)O [EDTA],inhibition of human QC catalyzed substrate cyclization,[1],did not show remarkable inhibition
same,inhibition of a mammalian QC,[2],did not inhibit
Cc1cc(=O)oc2cc(NC(=O)[C@@H](N)CCC(N)=O)ccc12 [H-Gln-AMC],kcat/KM,"[3]; Table 5, n.r. = not reactive",98000 ± 2000 M⁻¹ s⁻¹
C[C@H](NC(=O)[C@H](C)NC(=O)[C@@H](N)CCC(N)=O)C(N)=O [H-Gln-Ala-Ala-NH2] (H-Gln-Ala-Ala-NH2),Km,[3]; [7],87 ± 3 µM
C[C@H](NC(=O)[C@@H](N)CCC(N)=O)C(N)=O [H-Gln-Ala-NH2] (H-Gln-Ala-NH2),Km,[3]; [7],155 ± 9 µM
NC(=O)CC[C@H](N)C(=O)O [H-Gln-OH],kcat/KM,"[3]; Table 5, n.r. = not reactive",n.r.
COC(=O)CC[C@H](N)C(=O)N[C@@H](Cc1ccccc1)C(=O)N[C@@H](CCCCN)C(=O)N[C@@H](CCCNC(=N)N)C(=O)N[C@@H](CC(C)C)C(=O)N[C@@H](C)C(N)=O [H-Glu(OMe)-Phe-Lys-Arg-Leu-Ala-NH2] (H-E(OMe)FKRLA-NH2),inhibition of human QC by the peptide,[4],not inhibited
NC(=O)CC[C@H](N)C(=O)N[C@@H](CCC(=O)O)C(=O)N1CCC[C@H]1C(N)=O [[Gln^1]-FPP] (H-Gln-Glu-Pro-NH2),Km,[3]; [8],87 ± 2 µM
NC(=O)CC[C@H](N)C(=O)N[C@@H](Cc1c[nH]cn1)C(=O)N1CCC[C@H]1C(N)=O [[Gln^1]-TRH] (H-Gln-His-Pro-NH2),Km,[3]; [8],90 ± 4 µM
c1ccc2[nH]cnc2c1 [benzimidazole],suppression of [pGlu^3]Aβ3-11a / [pGlu^3]Aβ3-21a formation from Aβ3-11a / Aβ3-21a,[5],suppressed
same,suppression of [pGlu^3]Aβ3-11a / [pGlu^3]Aβ3-21a formation from Aβ3-11a / Aβ3-21a,[5]; listed as Benzimidazole,suppressing
O=C(O)c1cccc(C(=O)O)n1 [dipicolinic acid],inhibition of human QC catalyzed substrate cyclization,[1],abolished
same,inactivation of human QC after extensive dialysis,[1]; dialysis against 5 mM,almost completely inactivated
DAQFRHDSGYE-NH2 [[Gln^3]Aβ1-11a],cleavage by DPIV under formation of [Gln^3]Aβ3-11a,[6],cleaving
EFRHDSGYE-NH2 [Aβ3-11a],turnover of glutamate-containing peptide by QC,[5],serve as QC-substrates
EFRHDSGYEVHHQKLVFFA-NH2 [Aβ3-21a],turnover of glutamate-containing peptide by QC,[5],serve as QC-substrates
H-EFKRLA-NH2 [H-Glu-Phe-Lys-Arg-Leu-Ala-NH2],inhibition of human QC by the peptide,[4],not inhibited
H-Gln-cyclo(Nε-Lys-Arg-Pro-Ala-Gly-Phe) (H-QKRPAGF; lactam 2-C; SMILES C[C@@H]1NC(=O)[C@@H]2CCCN2C(=O)[C@H](CCCNC(=N)N)NC(=O)[C@@H](NC(=O)[C@@H](N)CCC(N)=O)CCCCNC(=O)[C@H](Cc2ccccc2)NC(=O)CNC1=O),kcat (turnover number),[3]; [9],22.8 ± 10.6 s⁻¹
same,kcat/KM-value,[3]; [9],95000 ± 3000 M⁻¹ s⁻¹
[Gln^1]-GnRH: GnRH with N-terminal glutamine: QHWSYGL RP(G) amide,kcat/KM,[3]; [8],1.3057e+06 ± 53200 M⁻¹ s⁻¹
reduced 6-methylpterin,inhibition of a mammalian QC,[2],Inhibition
